Experimental data taken from EP4741818A1, “COMPOUND TREATMENT METHOD, METHOD FOR PRODUCING COMPOUND OR REACTION PRODUCT OF SAME, SYSTEM FOR TREATING COMPOUND, AND REPLACEMENT TREATMENT COLUMN” (Flugelz Co., Ltd., priority 2023, dated 2025).
Converted amounts (≈) assume the structure as drawn. “And” between values parts separate entries of the source, which are not always exact repeats. Equal entries are not always repeated.

Test: Solubility of the compound in organic solvents and eluents
Format: physicochemical
Settings: for Solubility (mg/mL) at 25°C / Solubility: 25°C
[1] = eluent hexane and dichloromethane at 6:4 (volume ratio)

Solubility (mg/mL) at 25°C (Dichloromethane) [mg/mL] | Solubility (mg/mL) at 25°C (Ethyl acetate) [mg/mL] | Solubility (mg/mL) at 25°C (Toluene) [mg/mL] | solubility in the used eluent [1] [µg/mL] | Solubility (Example 4 eluent Hexane/ethyl acetate (volume ratio: 8:1)) [µg/mL] | Solubility (Example 5 eluent Hexane/toluene (volume ratio: 2:1)) [µg/mL] | Solubility (Example 6 eluent Hexane/THF (volume ratio: 8:1)) [µg/mL] | Solubility (Example 7 eluent Hexane/acetone (volume ratio: 8:1)) [µg/mL] | solubility in the used eluent (eluent hexane and ethyl acetate at 8:1 (volume ratio)) | solubility in the used eluent (eluent hexane and toluene at 3:2 (volume ratio)) [µg/mL] | SMILES
30 (≈ 59.8 mM) | 4 (≈ 7.97 mM) | 10 (≈ 19.9 mM) | 3000 | – | – | – | – | – | – | c1ccc(N(c2ccccc2)c2ccc3[nH]c4ccc(N(c5ccccc5)c5ccccc5)cc4c3c2)cc1 [DACT-II precursor, N,N,N',N'-tetraphenyl-9H-carbazole-3,6-diamine]
100 (≈ 124 mM) | 6 (≈ 7.42 mM) | 30 (≈ 37.1 mM) | 3000 | <1100 | <5900 | <2100 | <300 | 1000 µg/mL and 1100 µg/mL | 5000 | c1ccc(-c2nc(-c3ccccc3)nc(-c3ccc(-n4c5ccc(N(c6ccccc6)c6ccccc6)cc5c5cc(N(c6ccccc6)c6ccccc6)ccc54)cc3)n2)cc1 [DACT-II, 9-[4-(4,6-diphenyl-1,3,5-triazin-2-yl)phenyl]-N,N,N',N'-tetraphenyl-9H-carbazole-3,6-diamine]
